From patent US20240317683A1, “METHODS OF TREATING MOOD DISORDERS” (priority 2020, published 2024)

What was measured:
[1] = test system: C57BL/6 mice; test: Head twitch response (HTR) in mice; format: in vivo
Description: Animals. Adult male C57BL/6 mice, aged 8 weeks (body weight 20-25 g) were used in these experiments. Animals were housed under controlled temperatures and 12-hour light/dark cycles (lights on between 07:00-19:00 h), with ad libitum food and water. The protocol was approved by the Eurofins Advinus Institutional Animal Care and Use Committee. This study was carried out in strict accordance with the recommendations in the Guide for the Care and Use of Laboratory Animals of the National Institutes of Health. All efforts were made to minimize suffering.
Drugs and Drug administration. Compounds 3 and 4 were prepared as described above. All other compounds were commercially obtained. Test compounds were used as the hydrogen fumarate (1 and 2) or hydrochloride (DOI, 3, and 4) salts. Drugs were dissolved in a vehicle consisting of normal saline and administered subcutaneously (SC) in a volume of 10 ml/kg. Test compounds were administered at 5 doses per compound (0.1 to 100 mg/kg, as indicated, calculated based on the free base) using N=6 animals/group. […] For blockade experiments, MDL100907 (0.1 mg/kg, SC) was administered 10 mins prior to the test compound.
Procedure. Mice were administered one dose of a test drug (or vehicle) s.c. and immediately placed into a small open field for behavioral observation. Animals were observed continuously for 20 mins and the number of HTRs were counted by an observer blind to the treatment condition.
Statistical analysis. The data points shown in Table 11 are the mean ±standard error of the mean (SEM). Analysis was performed using GraphPad Prism 9.

[2] = Metabolic stability in rat liver microsomes (RLM); format: in vitro ADME; conditions: both sexes, pooled rat liver microsomes, pH 7.4, NADPH
Description: (§1) RLM Stability. Pooled RLM from adult male and female donors (Xenotech R1000) were used. Microsomal incubations were carried out in multi-well plates. […] Control incubations were performed by replacing the NADPH-cofactor system with PBS. Test compounds (1 μM, final solvent concentration 1.0%) were incubated with microsomes at 37° C. with constant shaking. Six time points over 60 minutes were analyzed, with 60 μL aliquots of the reaction mixture being drawn at each time point.

[3] = Metabolic stability in mouse liver microsomes (MLM); format: in vitro ADME, CD-1 mice; conditions: CD-1, mouse, pooled mouse liver microsomes, pH 7.4, NADPH
Description: as §1, with “MLM” for “RLM”, “CD-1 mice (BIOIVT M00501)” for “adult male and female donors (Xenotech R1000)”

[4] = Stability in rat brain homogenate; format: in vitro ADME, Sprague Dawley rats
Description: Rat Brain Homogenate Stability. Frozen rat brain homogenate (pooled from male Sprague Dawley rats, BioreclamationIVT, RATOOBRAINMZA) was thawed in a water bath at 37° C. immediately prior to use. Positive controls and test compounds (final concentration in incubation medium=1 μM for test compounds and 2 μM for controls, all with 2% DMSO) were incubated in duplicate for each time point (0, 10, 30, 60, and 120 min) in the rat brain homogenate at a total reaction volume of 100 μL at 37° C. At the end of each incubation period, reactions were immediately quenched with 400 μL of acetonitrile containing internal standard (200 ng/ml tolbutamine and 200 ng/ml labetalol) and mixed thoroughly. Plates were then sealed, shaken for 20 min, and centrifuged at 4,000 rpm and 4° C. for 20 min. Aliquots of 50 μL of each supernatant were diluted into 100 uL of water and the mixtures were then shaken again for 10 min.

[5] = target: 5-HT1A (Homo sapiens (Human), UniProt P08908); test: FLIPR Ca2+ flux agonist assay, 5-HT1A; format: cell-based; conditions: Ca2+ flux, CHO cells
Description: (§2) A solution of 250 mM probenecid in 1 mL FLIPR assay buffer was prepared fresh. This was combined with a fluorescent dye (Fluo-4 Direct™) to make a final assay concentration of 2.5 mM. […] The fluorescent dye was then added to the assay plate along with assay buffer to a final volume of 40 μL. The cell plate was incubated for 50 min at 37° C. and 5% CO2 and placed into the FLIPR Tetra along with the compound plate. 10 μL of references and compounds were then transferred from the compound plate into the cell plate and the fluorescent signal was read.

[6] = target: serotonin transporter (SERT) (Homo sapiens (Human), UniProt P31645); test: SERT fluorescent substrate uptake inhibition in transfected HEK293 cells; format: cell-based; conditions: HEK293 cells expressing SERT
Description: SERT Uptake Inhibition. The ability of test compounds to block monoamine uptake by SERT was determined using the Neurotransmitter Transporter Uptake Assay Kit manufactured by Molecular Devices (Cat #R8173). Briefly, stably transfected HEK293 cells expressing SERT were grown and plated into 384-well plates at a concentration of 20,000 cells per well. Plates were then incubated for 16-20 h at 37° C. and 5% CO2. The medium was then aspirated and replaced with 25 μL of assay buffer (20 mM HEPES in HBSS, containing 0.1% BSA) containing the test compounds at the appropriate concentrations. Plates were then centrifuged at 300 rpm for 15 s and then incubated at 37° C. for 30 minutes. At this time, 25 μL of the proprietary fluorescent dye solution was added, the plates were incubated at 37°° C. for 60 minutes, and then fluorescence was quantified on a plate reader (excitation wavelength =440 nm, emission wavelength=520 nm). The proprietary dye solution contains a mixture of 1) a fluorescent dye (dye 1) that mimics the endogenous substrate of SERT and is thereby actively transported to the intracellular compartment in the absence of an inhibitor and 2) a masking dye that inhibits the fluorescence of dye 1 in the extracellular compartment. Therefore, the overall fluorescence of the system increases as the fluorescent dye is transported into the cells.

[7] = Stability in mouse brain homogenate; format: in vitro ADME, CD-1 mice
Description: Mouse Brain Homogenate Stability. Frozen mouse brain homogenate (pooled from male CD-1 mice, BioreclamationIVT, MSE00BRAINMZA) was thawed in a water bath at 37° C. immediately prior to use. Positive controls and test compounds (final concentration in incubation medium=1 μM for test compounds and 2 μM for controls, all with 2% DMSO) were incubated in duplicate for each time point (0, 10, 30, 60, and 120 min) in the mouse brain homogenate at a total reaction volume of […] at 37° C. At the end of each incubation period, reactions were immediately quenched with 400 μL of acetonitrile containing internal standard (200 ng/mL tolbutamine and 200 ng/ml labetalol) and mixed thoroughly. Plates were then sealed, shaken for 20 min, and centrifuged at 4,000 rpm and 4° C. for 20 min. Aliquots of 50 μL of each supernatant were diluted into 100 μL of water and the mixtures were then shaken again for 10 min.

[8] = Metabolic stability in human liver microsomes (HLM); format: in vitro ADME; conditions: both sexes, pooled human liver microsomes, pH 7.4, NADPH
Description: as §1, with “HLM” for “RLM”, “(Corning 452117)” for “(Xenotech R1000)”

[9] = target: 5-HT2A (Homo sapiens (Human), UniProt P28223); test: FLIPR Ca2+ flux agonist assay, 5-HT2A; format: cell-based; conditions: HEK293
Description: as §2

[10] = test system: monoamine oxidase A and B (MAO-A and MAO-B); test: Stability in the presence of monoamine oxidases (human liver mitochondria); format: in vitro ADME
Description: Liver Mitochondria Incubations. Human liver mitochondria (Xenotech H0610.M) were used. Mitochondrial incubations were carried out in multi-well plates. […] Six time points over 60 minutes were analyzed.

[11] = target: 5-HT2B (Homo sapiens (Human), UniProt P41595); test: FLIPR Ca2+ flux agonist assay, 5-HT2B; format: cell-based; conditions: Ca2+ flux, HEK293
Chain of 5-HT2B (P41595 whole entry, looked up, species assumed): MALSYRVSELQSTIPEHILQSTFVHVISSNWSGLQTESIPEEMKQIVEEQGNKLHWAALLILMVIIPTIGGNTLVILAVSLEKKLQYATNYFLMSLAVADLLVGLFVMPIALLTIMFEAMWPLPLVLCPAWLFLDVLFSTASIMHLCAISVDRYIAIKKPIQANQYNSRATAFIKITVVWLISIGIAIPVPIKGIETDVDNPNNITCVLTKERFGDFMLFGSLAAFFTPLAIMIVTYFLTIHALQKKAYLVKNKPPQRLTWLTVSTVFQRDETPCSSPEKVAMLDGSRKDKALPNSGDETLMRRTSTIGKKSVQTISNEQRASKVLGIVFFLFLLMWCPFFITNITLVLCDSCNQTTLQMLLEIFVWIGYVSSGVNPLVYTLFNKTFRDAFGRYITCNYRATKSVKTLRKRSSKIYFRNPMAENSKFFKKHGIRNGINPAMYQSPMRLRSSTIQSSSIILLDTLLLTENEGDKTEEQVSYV
Description: as §2

[12] = human liver mitochondria, pH 7.4, human mitochondrial preparation, 1 μM

COc1cc(CC(C)N)c(OC)cc1I (stereo not shown) [DOI, 4-iodo-2,5-dimethoxyamphetamine, reference compound]
maximal effect in HTR ([1]; SC, maximal over tested doses): 35.6 head twitches/20 min

COc1ccc2[nH]cc(CCN(C)C)c2c1 [Compound 5-MeO-DMT, 5-methoxy-N,N-dimethyltryptamine, reference compound]
half-life at 1 μM [2]: 14 min | microsomal CLint at 1 μM [2]: 98.8 µL/min/mg | half-life at 1 μM [3]: 48.8 min | microsomal CLint at 1 μM [3]: 28.4 µL/min/mg | stability in rat brain homogenate (in words) [4]: highly unstable | half-life at 1 μM ([4]; male, Sprague Dawley, rat brain homogenate, 1 μM, 37° C.): 14.4 min | % Compound Remaining (after 120 min) ([4]; rat brain homogenate, 1 μM, 37° C.): 0.3% | 5-HT1A % Act @ Max Dose [5]: 78.8% | IC50 [6]: 7.02 µM | SERT % Inhibition @ Max Dose [6]: 68.07% | stability in mouse brain homogenate (in words) [7]: high stability | half-life at 1 μM ([7]; male, CD-1, mouse brain homogenate, 1 μM, 37° C.): > 289 min | % Compound Remaining (after 120 min) ([7]; mouse brain homogenate, 1 μM, 37° C.): 91.2% | half-life at 1 μM [8]: 13.6 min | 5-HT2A % Act @ Max Dose [9]: 106% | MAO stability (in words) ([10]; human liver mitochondria preparation): highly metabolized | half-life at 1 μM [10, 12]: 52.9 min | microsomal CLint at 1 μM [10, 12]: 43.6 µL/min/mg | Remaining (t = 60 min) ([10]; human mitochondrial preparation, 1 μM, 60 min): 47.1% | 5-HT2B % Act @ Max Dose [11]: 20.5%

COc1cccc([C@H](O)C2CCN(CCc3ccc(F)cc3)CC2)c1OC [MDL100907, reference compound]
blockade of the HTR induced by Compound 4 ([1]; pretreatment 0.1 mg/kg SC, 10 mins prior to Compound 4): completely blocked
